Data: patent publication EP4279069A1, “A PHARMACEUTICAL COMPOSITION FOR USE IN PREVENTING AND/OR REDUCING HEPATOTOXICITY INDUCED BY ACETAMINOPHEN” (priority 2022, dated 2023)
Where “and” joins values, the source holds several entries; their conditions need not be identical. Equal values may be shown once.

Assays:
[1] = median value; cited from earlier work
rats = assay: Toxicology of acetaminophen and/or nefopam: ALAT and ASAT by UV test according to IFCC recommendations; conditions: for ALAT / ASAT: after 4 weeks, mean, groups 2, 3, 5: P 505 for 4 days then 645 for 24 days and/or N 30 for 4 days then 38.6 for 24 days (mg/kg/day); for transaminase levels: rats, substance alone, after 4 weeks of treatment, statement in text
Protocol: Liver function in rats is measured and the progression of liver damage is monitored to screen for liver disease in invasive and non-invasive manner. Alanine aminotransferase (ALAT) and aspartate aminotransferase (ASAT), two markers of hepatotoxicity was assayed using UV test according to IFCC recommendations.
Control animals (group 1) received the vehicle only (1% Tween 80 in 0.5% Methylcellulose in water).

[2] = cited from earlier work
[3] = system: acetaminophen-induced acute liver injury; assay: Assessment of acute hepatotoxicity: serum biomarkers of liver injury (ALAT, ASAT), spectrophotometric assay; conditions: for ALAT / ASAT: i.p., 24h after treatment, individual mice
Protocol: 192 male mice CD-1 (Janvier, France) (12 mice per group) with an age of 7-10 weeks were used. They received the products intraperitoneally (i.p.).
Determination of serum biomarkers: Liver injury was evaluated by measuring the serum levels of alanine aminotransferase (ALAT), and aspartate aminotransferase (ASAT) using a spectrophotometric assay method.
(§1) Protocol: 24h after treatments, animals were euthanized. Plasma and liver were sampled.
Statistical analysis: Results were expressed as means ± standard error of mean (S.E.M.).

[4] = system: acetaminophen-induced acute liver injury; assay: Assessment of acute hepatotoxicity: histopathological assessment of liver lesions (H&E, necrosis grade); type: in vivo, mice CD-1
Protocol: They received the products intraperitoneally (i.p.).
Histopathological assessment of liver lesions: The histopathological lesions in the liver were evaluated as follows: The collected tissues were processed with standard procedures and embedded in paraffin. The embedded tissues were sectioned into 4 µm thick sections using a microtome. These tissue sections were stained with hematoxylin and eosin (H&E) according to standard techniques and examined by a light microscope.
The severity of necrotic lesions in liver parenchyma was determined. Grade 0: No pathological change Grade 1: Presence of degenerated hepatocytes with only rare foci of necrosis Grade 2: Small area of mild centrilobular necrosis around the central vein Grade 3: Area of mild centrilobular necrosis severer than Grade 2 Grade 4: Centrilobular necrosis severer than Grade 3
as §1

[5] = Vehicle + 200 mg/kg NAC, 200 mg/kg
[6] = Vehicle + 1.1 mg/kg nefopam, 1.1 mg/kg
[7] = Vehicle + 2.2 mg/kg nefopam, 2.2 mg/kg
[8] = Vehicle + 4.4 mg/kg nefopam, 4.4 mg/kg
[9] = nefopam at doses of 17.65 and 35.29 mg/kg (i.p.) co-administered with acetaminophen, mice

Which “median effective analgesic dose” value [1] does the source give for `CC(=O)Nc1ccc(O)cc1` [Acetaminophen, N-acetyl-p-aminophenol] here?
Its value is 500 mg.

What about the ALAT (rats; female rats) of the same molecule?
The ALAT was 49 U/L.

And the ASAT (rats; female rats)?
Its ASAT is 101 U/L.

And the ALAT (rats; male rats)?
Its ALAT is 59 U/L.

And the ASAT (rats; male rats)?
The ASAT was 110 U/L.

What about the transaminase levels (rats) of the same molecule?
The transaminase levels was “increases transaminase levels”.

What about the transaminase levels (rats; listed as acetaminophen) of the same molecule?
The transaminase levels was “increase in transaminase levels”.

And the half-life ([2]; individuals without liver injury)?
The half-life was 2 to 3 h.

What about the “bioavailability (drug being absorbed)” value ([2]; taken orally) of the same molecule?
The value was roughly 80%.

What about the “metabolized through the activity of CYPs (primarily CYP2E) to N-acetyl-p-benzoquinoneimine (NAPQI)” value ([2]; therapeutic doses) of the same molecule?
Its value is no more than 5%.

Which ALAT [3, 5] does the source give for `CC(=O)N[C@@H](CS)C(=O)O` [NAC, N-acetylcysteine] here?
Its ALAT is 41 U/L (2×) and 26 U/L and 27 U/L and 30 U/L and 58 U/L and 31 U/L and 28 U/L and 14 U/L and 29 U/L and 71 U/L and 51 U/L.

And the ASAT [3, 5]?
The ASAT was 292 U/L and 101 U/L and 114 U/L and 184 U/L and 320 U/L and 160 U/L and 360 U/L and 107 U/L and 283 U/L and 723 U/L and 170 U/L and 183 U/L.

And the Score ([4]; Vehicle + 200 mg/kg NAC, i.p., 24h after treatment, individual mice)?
Its Score is 0.

For `CN1CCOC(c2ccccc2)c2ccccc2C1` (stereo not shown) [nefopam, 5-methyl-1-phenyl-1,3,4,6-tetrahydro-2,5-benzoxazo-cine], which ALAT [3, 6] is on record?
The ALAT was 17 U/L and 29 U/L and 55 U/L (2×) and 51 U/L and 23 U/L and 31 U/L and 45 U/L and 19 U/L and 49 U/L and 27 U/L and 28 U/L.

What about the ASAT [3, 6] of the same molecule?
The ASAT was 98 U/L and 266 U/L and 180 U/L and 152 U/L and 193 U/L and 181 U/L and 136 U/L and 426 U/L and 110 U/L and 97 U/L and 210 U/L.

And the ALAT [3, 7]?
The ALAT was 30 U/L (2×) and 19 U/L (2×) and 52 U/L and 152 U/L and 24 U/L and 27 U/L and 35 U/L and 60 U/L and 57 U/L and 25 U/L.

And the ASAT [3, 7]?
The ASAT was 111 U/L and 395 U/L and 59 U/L and 325 U/L and 119 U/L and 118 U/L and 221 U/L and 129 U/L and 269 U/L and 785 U/L and 148 U/L.

What about the ALAT [3, 8] of the same molecule?
Its ALAT is 55 U/L and 25 U/L and 22 U/L and 43 U/L (2×) and 51 U/L and 26 U/L and 28 U/L and 42 U/L and 24 U/L and 71 U/L and 23 U/L.

And the ASAT [3, 8]?
Its ASAT is 541 U/L and 128 U/L and 111 U/L and 93 U/L and 151 U/L and 79 U/L and 89 U/L and 531 U/L and 71 U/L and 466 U/L.

And the acetaminophen-induced hepatotoxicity ([3]; co-administered with acetaminophen 300 mg/kg i.p., mice)?
Its acetaminophen-induced hepatotoxicity is “able to abolish acetaminophen-induced hepatotoxicity”.

What about the “ASAT and ALAT plasma concentration” value ([3]; mouse, in vivo) of the same molecule?
The value was “did not influence”.

What about the “ASAT and ALAT elevations” value [3, 9] of the same molecule?
The value was “significantly reduced”.

What about the histological score ([4]; mouse, in vivo) of the same molecule?
The histological score was 0.

And the histological score [4, 9]?
Its histological score is “significantly reduced”.

What about the ALAT (rats; female rats) of the same molecule?
The ALAT was 31 U/L.

And the ASAT (rats; female rats)?
Its ASAT is 96 U/L.

What about the ALAT (rats; male rats) of the same molecule?
The ALAT was 35 U/L.

And the ASAT (rats; male rats)?
The ASAT was 83 U/L.
